Test results reported in PMC6135396, “Repurposing antimalarial aminoquinolines and related compounds for treatment of retinal neovascularization” (PLoS ONE, 2018).

What was measured:
[1] = Cytotoxicity, ATP-Lite, HRECs; type: cell-based; conditions: human, HREC cells; HRECs; read-out: Cytotoxicity LC50
Protocol: (§1) Fa2N-4 immortalized human hepatocytes (Xenotech) or HREC cells were grown to subconfluency in wells of a 96-well plate and exposed to different concentrations of compounds for 24 h after which the cells were washed and the media and compounds replaced. The cells were returned to the incubator for another 24 h. The extent of cell death (cell lysis) was determined by ATP-Lite reagent (Perkin-Elmer).

HRECs = experiment: Cytotoxicity, ATP-Lite, HRECs; type: cell-based; conditions: tested up to 100 μM
Protocol: as §1

parental CHO-K1 cells = experiment: Parental cAMP counter assay (cells lacking APJ); type: cell-based; conditions: Cricetulus griseus
Protocol: To identify small-molecule antagonists of the apelin receptor (APJ) we interrogated the SBP compound file of ~425,000 compounds using CHO-k1-AGTRL1 cells overexpressing human APJ and a competitive immunoassay of intracellular cAMP [59]. The compound file was screened at a concentration of 10 μM. For all 333 plates assayed, the average Z-factor = 0.68 and the average S/B = 8.2, indicating a robust assay performance. […] There were 2550 compounds that met this criterion, representing a hit rate of ~0.6%. […] Included in this hit set was a series of aminoquinolines, exemplified by compound 1 (Fig 1B). […] As part of an initial hit-validation strategy, these compounds and three other commercially available analogs were purchased for further testing. The purity and identify of all compounds were confirmed by NMR and LC-MS, and they were subsequently retested in a battery of cell-based assays of APJ function and counter screens. […] (Fig 1D).
PathHunter™ GPCR Arrestin and cAMP Hunter™ cell lines (DiscoveRx Corp., Fremont, CA) were used to assay G-protein-dependent signaling and β-arrestin recruitment to APJ. CHO-K1 cells stably expressing APJ (CHO-K1-APJ) or AT1 (CHO-K1-AT1) with β-arrestin/β-galactosidase enzyme fragment complementation constructs were maintained in HAM's F-12 medium (Hyclone, Logan, UT) supplemented with 10% FBS, 1X Penicillin-Streptomycin-Glutamine (Invitrogen; Carlsbad, CA), 300 μg/ml hygromycin (EMD Biosciences, San Diego, CA), and 800 μg/ml Geneticin (Cellgro, Manassas, VA). Primary Human Retinal Microvascular Endothelial Cells (HRECs) were purchased from Cell Systems (Kirkland, WA) and maintained in Complete Classic Medium with CultureBoost-R™ (Cell Systems). Parent CHO-K1 cells were obtained from ATCC and maintained in HAM’s F-12 medium supplemented with 10% FBS, and1X Penicillin-Streptomycin-Glutamine (Invitrogen; Carlsbad, CA). All cells were incubated at 37°C (5% CO2, 95% relative humidity) and maintained at less than 70% to 80% confluence (approximately 75,000 cells/cm^2). Cell heterologously expressing APJ or AT1 were not used after 10 passages. HRECs were not used in any experiments after five passages.
All reagents unless otherwise specified are components of the cAMP HitHunter (DiscoveRx) kit. Ligand Buffer + 60 μM Forskolin (Cayman Chemical, Ann Arbor, MI) was made fresh on the day of the experiment and used for the dilution of positive and negative controls as well as all peptides. CHO-K1-APJ cells were dispensed into a 1536-well tissue culture microplate (Corning, Corning, NY) using a Multidrop at a seeding density of 1,000 cells/well and returned to the incubator. The next day, the cell culture media was removed and replaced with 15 μl/well of assay buffer (1X HBSS, 10 mM HEPES) containing anti-cAMP antibody (DiscoveRx). […] Plates were incubated at room temperature in the dark for 3 hours prior to chemiluminescence detection on an EnVision (Perkin Elmer) using a counting time of 1 s/well.

Plasma stability, rat = type: in vitro ADME
APJ = biological target: T1, APJ (Homo sapiens, UniProt P35414); experiment: Radioligand competition binding assay, [125I]-Glp65, Nle75, Tyr77-Ap13 on APJ membranes; parameters: purchased Perkin Elmer; conditions: tested as high as 100 μM
T1 sequence (P35414 1-380): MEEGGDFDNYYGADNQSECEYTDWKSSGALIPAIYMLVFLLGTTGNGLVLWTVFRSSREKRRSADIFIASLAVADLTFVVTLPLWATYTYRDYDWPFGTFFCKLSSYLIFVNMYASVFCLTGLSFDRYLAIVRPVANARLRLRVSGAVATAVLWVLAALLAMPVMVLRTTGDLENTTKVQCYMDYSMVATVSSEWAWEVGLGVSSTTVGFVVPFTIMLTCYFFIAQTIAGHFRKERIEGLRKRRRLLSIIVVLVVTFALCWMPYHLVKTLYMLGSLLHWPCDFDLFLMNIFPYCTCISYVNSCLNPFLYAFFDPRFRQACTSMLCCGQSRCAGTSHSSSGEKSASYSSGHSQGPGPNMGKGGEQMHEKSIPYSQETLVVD
Protocol: Soaking buffer (300 μl/well) was added to a 96-well GF/C filter plate (MultiScreen Harvest plate, Millipore) and left to equilibrate at room temperature for 3 h. […] Following incubation, contents were transferred from the OptiPlate to the pre-wet GF/C filter plate, and immediately underwent vacuum filtration. The filter plate was washed five times with 200 μl ice cold wash buffer and left at room temperature overnight to equilibrate. The next day, 20 μl scintillation liquid (Microscint 20, Perkin Elmer) was added and radioactivity quantified using a TopCount NXT (Perkin Elmer) microplate scintillation and luminescence counter. […] The Cheng & Prusoff equation was used to convert IC50 estimates to equilibrium dissociation constants [89].

[2] = system: choroidal neovascularization (CNV) lesions; experiment: Laser-induced CNV mouse model; type: in vivo; conditions: for CNV lesion volume vs vehicle control: two injections, choroidal flatmounts, 14 days post-laser
[3] = Plasma-protein binding, rat; type: in vitro ADME
[4] = Hepatic microsome stability, mouse; type: in vitro ADME; conditions: liver microsomes, pH 7.4, single phase, read-out: Hepatic microsome stability T1/2
Protocol: (§2) Hepatic microsomes stability assays were performed as reported before. […] After preincubation at 37°C for 10 min, enzyme reactions were initiated by adding 120 μL of NADPH-generating system (2 mM NADP^+, 10 mM glucose-6-phosphate, 0.4 U/ml glucose-6-phosphate dehydrogenase, and 5 mM MgCl2) in the presence of 100 mM potassium phosphate buffer (pH 7.4). The final concentration of each model compound used was 1 μM. The microsomal concentrations used were 1.0 mg/mL. Compounds were incubated in microsomes for 0, 5, 15, 30 and 60 min. The reactions were stopped by the addition of ice cold ACN and the reaction mixtures were centrifuged at 10,000g for 10 min before the supernatant was removed for analysis.
(§3) Except for the primary assay in the HTS campaign, all experiments were repeated at least three times. Results are expressed as mean ± SEM. The Mann-Whitney test was used to determine statistical significance of the densitometry data of Western blot analysis. Unpaired two-tailed Student’s t-test was performed for the significance of the results of ELISA and in vitro tubule formation assay. ANOVA was used to determine the significance in vivo CNV models using the Tukey post-hoc test for multiple comparisons. […] T1/2 was calculated using the best fit curve resulting from non-linear (human) or linear (mouse and rat) regression analyses using Prism 7.

[5] = Hepatic microsome stability, human; type: in vitro ADME; conditions: liver microsomes, pH 7.4, terminal half-life of a two-phase exponential decay, read-out: Hepatic microsome stability T1/2
Protocol: as §2, §3

Plasma stability, mouse = type: in vitro ADME

With `CCN(CC)Cc1cc(Nc2ccnc3cc(Cl)ccc23)ccc1O` [AQ, amodiaquine] the CC50 at 48 h [1] was greater than 100 µM, the “Cytotoxicity to HRECs” value (HRECs) was “Neither ML221 nor AQ were significantly toxic” and the IC50 (parental CHO-K1 cells) was greater than 99 µM. The Plasma stability (Plasma stability, rat) was 46.3 % remaining at 3 hrs, the “Displacement of [125I]-Glp65, Nle75, Tyr7-Ap13 binding” value (APJ) was “did not displace” and the “CNV lesion size by optical coherence tomography vs vehicle treated eyes” value ([2]; 14 days post-laser injury, intravitreal AQ 5.0-50.0 μg) was “significantly smaller”. For the same compound, the “CNV lesion volume vs vehicle control” value ([2]; AQ 5.0 μg intravitreal) was “not a statistically significant reduction”, the “CNV lesion volume vs vehicle control” value ([2]; AQ 10.0 μg intravitreal) was “not a statistically significant reduction” and the “CNV lesion volume vs vehicle control” value ([2]; AQ 25.0 μg intravitreal) was “statistically significant decrease”. For the same compound, the “CNV lesion volume vs vehicle control” value ([2]; AQ 50.0 μg intravitreal) was “an even greater decrease”, the “CNV lesion size in confocal images of agglutinin-stained choroidal flatmounts” value ([2]; intravitreal AQ) was “reduction in CNV lesion size at 10μg AQ and higher” and the Plasma-protein binding ([3]; 1 μM) was 75.3 % bound. The Plasma-protein binding ([3]; 10 μM) was 76.8 % bound, the half-life at 1 μM [4] was 39.8 min and the half-life at 1 μM [5] was 17 min. It also gave a Plasma stability (Plasma stability, mouse) of 36.1 % remaining at 3 hrs.
